According to ChEMBL document CHEMBL1201862, “PubChem BioAssay data set” (2004):
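Protocol summary: plate cells (96-well), add compound at 5 concentrations, incubate 48 h, interpolate endpoints linearly. GI50 = concentration required for 50% inhibition of growth.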 Active and inactive are the calls of the source. No stated cut-off is given here; in the data, active = GI50 up to about 1.1 µM and inactive = higher.

Tests used:
Experiment in all cases: NCI anticancer screen, dose series, 48 h
ACHN = tested on: ACHN
HCT-116 = tested on: HCT-116
HCT-15 = tested on: HCT-15
HOP-62 = tested on: HOP-62
NCI-H23 = tested on: NCI-H23
OVCAR-3 = tested on: OVCAR-3
OVCAR-4 = tested on: OVCAR-4
SK-MEL-28 = tested on: SK-MEL-28
SK-MEL-2 = tested on: SK-MEL-2
SK-OV-3 = tested on: SK-OV-3
SNB-78 = tested on: SNB-78
SR = tested on: SR
UACC-257 = tested on: UACC-257
DLD-1 = tested on: DLD-1
NCI-H460 = tested on: NCI-H460
Hs-578T = tested on: Hs-578T
MDA-MB-231 = tested on: MDA-MB-231
MDA-MB-435 = tested on: MDA-MB-435
NCI/ADR-RES = tested on: NCI/ADR-RES
PC-3 = tested on: PC-3

| SMILES | GI50 (ACHN) | GI50 (HCT-116) | GI50 (HCT-15) | GI50 (HOP-62) | GI50 (NCI-H23) | GI50 (OVCAR-3) | GI50 (OVCAR-4) | GI50 (SK-MEL-28) | GI50 (SK-MEL-2) | GI50 (SK-OV-3) | GI50 (SNB-78) | GI50 (SR) | GI50 (UACC-257) | GI50 (DLD-1) | GI50 (NCI-H460) | GI50 (Hs-578T) | GI50 (MDA-MB-231) | GI50 (MDA-MB-435) | GI50 (NCI/ADR-RES) | GI50 (PC-3) |
| --- | --- | --- | --- | --- | --- | --- | --- | --- | --- | --- | --- | --- | --- | --- | --- | --- | --- | --- | --- | --- |
| COc1cc(/C=C(\C#N)C(=O)c2ccccc2)ccc1OCc1ccccc1 | > 100 µM (inactive) | > 100 µM (inactive) | > 100 µM | > 100 µM (inactive) | > 100 µM (inactive) | > 100 µM (inactive) | > 100 µM (inactive) | > 100 µM (inactive) | > 100 µM (inactive) | > 100 µM (inactive) | > 100 µM (inactive) | > 100 µM (inactive) | > 100 µM (inactive) |  |  |  |  |  |  |  |
| O=C1C(Br)=C[C@H]2C3C=CC(Br)(C3=O)[C@@H]12 (stereo partly specified) | 14.6 µM (inactive) | 10.9 µM (inactive) | 12.2 µM | 35.6 µM (inactive) | 12.5 µM (inactive) | 13.6 µM (inactive) | 15.7 µM (inactive) | 12.6 µM (inactive) | 14.3 µM (inactive) | 7.69 µM (inactive) | 94.8 µM (inactive) |  | 12.2 µM (inactive) | 7.57 µM (inactive) |  |  |  |  |  |  |
| CCOc1ccc(NC(=O)C2=C(C)NC(C)=C(C(=O)Nc3ccc(OCC)cc3)C2c2ccccc2)cc1 | 74.6 µM (inactive) |  |  | > 100 µM (inactive) | > 100 µM (inactive) | > 100 µM (inactive) | > 100 µM (inactive) | > 100 µM (inactive) | 56.8 µM (inactive) | > 100 µM (inactive) | > 100 µM (inactive) |  | > 100 µM (inactive) | 97.7 µM (inactive) | > 100 µM (inactive) |  |  |  |  |  |
| O=C(/N=c1/[nH]/c(=N/C(=O)c2ccccc2)ss1)c1ccccc1 | 13.8 µM (inactive) | 28.8 µM (inactive) | 21.4 µM | 21.9 µM (inactive) | 19.3 µM (inactive) | 13.1 µM (inactive) | 38.1 µM (inactive) | 23.9 µM (inactive) | 19.4 µM (inactive) | 34.7 µM (inactive) | 48.1 µM (inactive) | 24 µM (inactive) | 14.6 µM (inactive) |  | 16.6 µM (inactive) |  |  |  |  |  |
| CC(C)[C@@H](COC(C)(C)C)/N=C/N1CCc2c([nH]c3ccccc23)C1 | > 100 µM (inactive) | > 100 µM (inactive) | > 100 µM | > 100 µM (inactive) | > 100 µM (inactive) | > 100 µM (inactive) | > 100 µM (inactive) | > 100 µM (inactive) | > 100 µM (inactive) | > 100 µM (inactive) | > 100 µM (inactive) |  |  | > 100 µM (inactive) | > 100 µM (inactive) |  |  |  |  |  |
| O=C(N/C(=C\c1ccccc1O)c1nc2ccccc2[nH]1)c1ccccc1 | 73.8 µM (inactive) | 89.7 µM (inactive) | > 100 µM | 79.6 µM (inactive) | 40.6 µM (inactive) | > 100 µM (inactive) | > 100 µM (inactive) | > 100 µM (inactive) | 74.1 µM (inactive) | 36.1 µM (inactive) | 43.5 µM (inactive) |  | > 100 µM (inactive) |  | > 100 µM (inactive) |  |  |  |  |  |
| COc1ccc(NC/C=C/C(=C/COC(C)=O)OC(C)=O)cc1 | 1.73 µM (inactive) | 1.81 µM (inactive) | 2.41 µM | 2.42 µM (inactive) | 2.06 µM (inactive) | 2 µM (inactive) | 1.82 µM (inactive) | 1.87 µM (inactive) | 2.28 µM (inactive) | 14.9 µM (inactive) |  | 0.514 µM (active) | 2.24 µM (inactive) |  | 2.08 µM (inactive) | 2.12 µM (inactive) | 1.78 µM (inactive) | 1.73 µM (inactive) | 2.59 µM (inactive) | 2.28 µM (inactive) |
